# Measured values taken from US6825348B2, “Antiviral compounds” (Academia Sinica, priority 2002, dated 2004).
# Read-outs that look alike come from different tables or passages of the source.
# Tests used:
# CEM cells = test: Toxicity toward CEM cells
# HIV-1 (IIIB) = test: microbe, parasite or virus in culture; format: cell-based; settings: Human immunodeficiency virus 1, IIIB; MT4 cells, average of duplicates; read-out: IC50 HIV-1 (IIIB)
# [1] = test system: thymidine kinase-deficient (TK−) varicella-zoster virus (YS/R); test: microbe, parasite or virus in culture; format: cell-based; settings: for IC50 TK−VZV (YS/R): Vero cell culture, 50% inhibition of cytopathogenicity, for 1:1 mixtures IC50 refers to known antiviral drugs
# HIV-2 (LAV-2) = test: Inhibition of HIV-2 cytopathogenicity in MT4 cells; format: cell-based, human immunodeficiency virus; settings: Human immunodeficiency virus 2; MT4 cells, average of duplicates; read-out: IC50 HIV-2 (LAV-2)
# [2] = Solubility in water (phosphate buffer, UV absorbance)
# [3] = target: T1, calf mucosal adenosine deaminase (ADA, EC 3.5.4.4) (Bos taurus, UniProt P56658); test: Substrate activity and competitive inhibition of adenosine deaminase; format: biochemical
# T1 sequence (P56658 1-363): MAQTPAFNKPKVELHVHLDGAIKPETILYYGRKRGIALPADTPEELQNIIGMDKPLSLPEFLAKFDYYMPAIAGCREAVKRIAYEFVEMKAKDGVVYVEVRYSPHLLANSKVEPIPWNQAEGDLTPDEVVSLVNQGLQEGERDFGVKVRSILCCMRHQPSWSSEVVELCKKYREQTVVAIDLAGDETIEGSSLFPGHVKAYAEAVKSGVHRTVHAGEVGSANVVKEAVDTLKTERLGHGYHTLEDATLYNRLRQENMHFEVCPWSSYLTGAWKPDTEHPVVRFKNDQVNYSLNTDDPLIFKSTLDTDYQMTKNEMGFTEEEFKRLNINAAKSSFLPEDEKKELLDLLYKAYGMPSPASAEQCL
# MT4 cells = test: Toxicity toward MT4 cells
# [4] = test system: human cytomegalovirus (AD-169); test: Inhibition of HCMV cytopathogenicity in Vero cell culture; format: cell-based; settings: Vero cell culture, 50% inhibition of cytopathogenicity, for 1:1 mixtures IC50 refers to known antiviral drugs
# [5] = test system: thymidine kinase-positive (TK+) varicella-zoster virus (YS); test: Inhibition of TK+ VZV cytopathogenicity in Vero cell culture; format: cell-based
# HSV-1 (KOS) = test: Anti-HSV-1 activity in vivo, HSV-1-induced mortality in NMRI mice; settings: 6 days; for mean day of animal death / mean day of symptom initiation: terminated day 21; for responders at 100 mg/kg / responders at 150 mg/kg / responders at 250 mg/kg: Human alphaherpesvirus 1, ip, 504 h
# MSV = settings: for mean day of animal death / percentage of MSV-infected mice alive at day 21 postinfection / percentage of MSV-infected mice without tumors at day 21 postinfection: two injections; for mean day of tumor initiation: two injections within two days
# [6] = Lipophilicity, 1-octanol/water partition coefficient
# [7] = test system: moloney murine sarcoma virus (MSV); test: Inhibition of MSV cytopathogenicity in CEM cells (cell-protection assay); format: cell-based; settings: Moloney murine sarcoma virus, CCRF-CEM; CEM cells, average of duplicates; read-out: IC50 MSV
# [8] = test system: herpes simplex type 1 virus (HSV-1) (KOS); test: Inhibition of HSV-1 cytopathogenicity in Vero cell culture; format: cell-based; settings: for IC50 HSV-1 (KOS): Vero cell culture, 50% inhibition of virus-induced cytopathogenicity, mean of duplicates, for 1:1 (W/W) mixtures IC50 refers to known antiviral drugs
# [9] = LD50 and toxicity in mice, intraperitoneal
# [10] = test system: Vero cell thymidine kinase; test: Phosphorylation of nucleosides by Vero cell thymidine kinase; format: biochemical
# HSV thymidine kinase = HSV thymidine kinase (Human herpesvirus 1, UniProt P0DTH5); test: Phosphorylation of nucleosides by HSV thymidine kinase; format: biochemical
# [11] = test system: herpes simplex type 2 virus (HSV-2) (G); test: Inhibition of HSV-2 cytopathogenicity in Vero cell culture; format: cell-based; settings: 50% inhibition of cytopathogenicity, for 1:1 mixtures IC50 refers to known antiviral drugs
# [12] = Vero cell culture, 50% inhibition of cytopathogenicity, for 1:1 mixtures IC50 refers to known antiviral drugs
# Chain of HSV thymidine kinase (P0DTH5 whole entry, looked up): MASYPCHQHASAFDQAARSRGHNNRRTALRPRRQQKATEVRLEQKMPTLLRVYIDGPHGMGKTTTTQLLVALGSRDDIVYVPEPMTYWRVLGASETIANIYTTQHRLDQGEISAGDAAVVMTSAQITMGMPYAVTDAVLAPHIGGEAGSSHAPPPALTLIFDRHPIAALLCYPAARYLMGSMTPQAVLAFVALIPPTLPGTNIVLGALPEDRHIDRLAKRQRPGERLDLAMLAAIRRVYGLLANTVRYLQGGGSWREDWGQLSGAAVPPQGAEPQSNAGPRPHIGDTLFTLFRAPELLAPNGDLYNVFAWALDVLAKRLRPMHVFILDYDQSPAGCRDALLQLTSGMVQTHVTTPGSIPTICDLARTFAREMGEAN
smiles,measurement,setting,value
"COC1=C(OC)/C(=C/COP(=O)(O)COCCn2cnc3c(N)ncnc32)OC1=O [Compound 28, [1-(Adenin-9-yl-ethoxy)methyl]phosphono-6-yl-(Z)-4-(ethylidene)-2,3-dimethoxy-Δ^a,b-butenolide]","CEM cell, concentration reducing the number of viable uninfected cells by 50%",CEM cells,280 µg/mL
same,IC50,HIV-1 (IIIB),1.4 µg/mL
same,IC50,"[1]; Human alphaherpesvirus 3, Vero, read-out: IC50 TK−VZV (YS/R)",2.4 µg/mL
same,IC50,HIV-2 (LAV-2),1 µg/mL
same,solubility at 20 h,"[2]; phosphate buffer, pH 6.8, aqueous buffer, thermodynamic from solid",7420 µg/mL
same,ADA substrate / inhibitor property in words,[3],neither a good substrate nor an inhibitor
same,"MT4 cell, concentration reducing the number of viable uninfected cells by 50%",MT4 cells,265 µg/mL
same,IC50,"[4]; Human betaherpesvirus 5, AD169, read-out: IC50 HCMV (AD-169)",5.4 µg/mL
same,IC50 TK+VZV (YS),[5],2.0 µg/mL
same,"HeLa cell, concentration causing microscopically visible change or disruption in about 50% of the cell sheet",HeLa cells; human,139 µg/mL
same,protection against HSV-induced mortality,HSV-1 (KOS); 100 mg/kg i.p.,same level of protection
same,mean day of animal death,HSV-1 (KOS); 100 mg/kg/day i.p.,>21 days
same,mean day of symptom initiation,HSV-1 (KOS); 100 mg/kg/day i.p.,>21 days
same,mean day of animal death,HSV-1 (KOS); 150 mg/kg/day i.p.,>21 days
same,mean day of symptom initiation,HSV-1 (KOS); 150 mg/kg/day i.p.,>21 days
same,mean day of animal death,HSV-1 (KOS); 250 mg/kg/day i.p.,>21 days
same,mean day of symptom initiation,HSV-1 (KOS); 250 mg/kg/day i.p.,>21 days
same,responders at 100 mg/kg,"HSV-1 (KOS); 100 mg/kg/day i.p., read-out: percentage of HSV-1-infected mice alive at day 21 postinfection",100%
same,responders at 100 mg/kg,"HSV-1 (KOS); 100 mg/kg/day i.p., read-out: percentage of HSV-1-infected mice without symptoms at day 21 postinfection",100%
same,responders at 150 mg/kg,"HSV-1 (KOS); 150 mg/kg/day i.p., read-out: percentage of HSV-1-infected mice alive at day 21 postinfection",100%
same,responders at 150 mg/kg,"HSV-1 (KOS); 150 mg/kg/day i.p., read-out: percentage of HSV-1-infected mice without symptoms at day 21 postinfection",100%
same,responders at 250 mg/kg,"HSV-1 (KOS); 250 mg/kg/day i.p., read-out: percentage of HSV-1-infected mice alive at day 21 postinfection",100%
same,responders at 250 mg/kg,"HSV-1 (KOS); 250 mg/kg/day i.p., read-out: percentage of HSV-1-infected mice without symptoms at day 21 postinfection",100%
same,mean day of animal death,MSV; 10 mg/kg/day i.p.,18.9 ± 1.8 days
same,percentage of MSV-infected mice alive at day 21 postinfection,MSV; 10 mg/kg/day i.p.,(97%)
same,mean day of tumor initiation,MSV; 10 mg/kg/day i.p.,14.0 ± 2.1 days
same,mean day of animal death,MSV; 20 mg/kg/day i.p.,>21 days
same,percentage of MSV-infected mice alive at day 21 postinfection,MSV; 20 mg/kg/day i.p.,(100%)
same,percentage of MSV-infected mice without tumors at day 21 postinfection,MSV; 20 mg/kg/day i.p.,(80%)
same,mean day of tumor initiation,MSV; 20 mg/kg/day i.p.,17.9 ± 1.7 days
same,mean day of animal death,MSV; 50 mg/kg/day i.p.,>21 days
same,percentage of MSV-infected mice alive at day 21 postinfection,MSV; 50 mg/kg/day i.p.,(100%)
same,percentage of MSV-infected mice without tumors at day 21 postinfection,MSV; 50 mg/kg/day i.p.,(95%)
same,mean day of tumor initiation,MSV; 50 mg/kg/day i.p.,18.4 ± 1.4 days
same,weight loss in surviving animals,"MSV; MSV-infected NMRI mice, i.p.",about 2 g
same,logP at […],[6]; 1-octanol/water (0.10 M phosphate buffer),2.09
same,"Vero cell, concentration causing microscopically visible change or disruption in about 50% of the cell sheet",Vero cells; African green monkey,170 µg/mL
same,IC50,[7],0.93 µg/mL
same,IC50,"[8]; Human alphaherpesvirus 1, Vero, read-out: IC50 HSV-1 (KOS)",3.7 µg/mL
same,LD50,"[9]; NMRI, mouse, in vivo, ip",710 mg/kg
same,level up to which no toxicity was shown,"[9]; mice, intraperitoneal",400 mg/kg
"Nc1ncnc2c1ncn2[C@@H]1O[C@H](CO)[C@@H](O)[C@@H]1O [ara A 3, 9-(β-D-arabinofaranosyl)adenine, reference compound]",IC50 TK−VZV (YS/R),[1],>128 µg/mL
same,Km,"[10]; apparent Km, 37° C., pH 7.5",13 mM
same,"rel. Vmax, Vero cell thymidine kinase",[10]; relative to thymidine = 1.0 × 10^2,<3.0
same,solubility in water,"[2]; phosphate buffer 0.10 M, pH 6.8, agitated 20 h",480 µg/mL
same,"rel. Vmax, HSV thymidine kinase",HSV thymidine kinase,<3.0
same,effect on the rate of phosphorylation of acyclovir 2 in words,HSV thymidine kinase; mixture with acyclovir 2 (w/w=1:1),did not induce any increase
same,rel. Vmax,"[3]; compound as ADA substrate, relative to ara A 3 = 1.0",1.0
same,IC50 HCMV (AD-169),[4],27 µg/mL
same,IC50 TK+VZV (YS),[5]; [12],>128 µg/mL
same,"HeLa cell, concentration causing microscopically visible change or disruption in about 50% of the cell sheet",HeLa cells,73 µg/mL
same,log P (1-octanol/water),"[6]; P = [substrate]1-octanol/[substrate]H2O, phosphate buffer 0.10 M",−0.50
same,"Vero cell, concentration causing microscopically visible change or disruption in about 50% of the cell sheet",Vero cells,89 µg/mL
same,IC50 HSV-2 (G),[11],>128 µg/mL
same,IC50 HSV-1 (KOS),[8],8.8 µg/mL
"Nc1nc2ncn(COCCCl)c2c(=O)[nH]1 [Compound 7, 7-[(2-Chloroethoxy)methy]guanine]",IC50 TK−VZV (YS/R),[1],>128 µg/mL
same,IC50 HCMV (AD-169),[4],>128 µg/mL
same,IC50 TK+VZV (YS),[5]; [12],>128 µg/mL
same,"HeLa cell, concentration causing microscopically visible change or disruption in about 50% of the cell sheet",HeLa cells,157 µg/mL
same,"Vero cell, concentration causing microscopically visible change or disruption in about 50% of the cell sheet",Vero cells,145 µg/mL
same,IC50 HSV-2 (G),[11],>128 µg/mL
same,IC50 HSV-1 (KOS),[8],>128 µg/mL
